{"source": "paper PMC10610379", "about": "“Epidrugs as Promising Tools to Eliminate Plasmodium falciparum Artemisinin-Resistant and Quiescent Parasites” (Pharmaceutics, 2023)", "key": {"NFF": {"system": "NFF", "conditions": "cited from earlier work"}, "[1]": {"system": "Plasmodium falciparum F32-ART (artemisinin-resistant strain)", "assay": "Standard chemosensitivity assay (SYBR Green I), F32-ART", "assay_type": "cell-based", "conditions": "for IC50: F32-ART, 48 h incubation, SYBR Green I, mean ± SEM of 3 experiments (* mean of 2), read-out: Antiplasmodial Activity: IC50, F32-ART; for Selectivity Index CC50/IC50: ratio cytotoxicity (mammalian cell type of the CC50)/antiplasmodial activity on F32-ART", "method": "(§1) They differ by eight mutations in seven genes (PF3D7_0110400, PF3D7_1343700, PF3D7_0213400, PF3D7_1115700, PF3D7_1302100, PF3D7_1459600, PF3D7_1464500) among them the M476I mutation on the kelch13 gene. F32-ART and F32-TEM strains have RSA^0–3 h values up to 12% and less than 0.1%, respectively. […] Both strains were cultured, in the same conditions, according to the Trager and Jensen protocol with modifications. Briefly, parasites were cultivated in RPMI-1640 medium (Biowest) at 2% hematocrit in human red blood cells and 5% human serum (EFS, French Blood Bank) under 5% CO2 in a humid atmosphere at 37 °C.\n(§2) The antimalarial activities of the compounds were evaluated on both strains. […] Antimalarial activities were determined with the SYBR Green I method. Each drug concentration was tested in triplicate. The parasites were incubated with the drugs for 48 h. Plates were read on a BioTek FLX800 Microplate Fluorescence Reader (Bio-Tek instruments, Winooski, VT, USA) (λexcitation = 485 nm, λemission = 528 nm). Control parasite culture (i.e., RPMI with 0.5% DMSO) was referred to as 100% growth. IC50 and IC90 values were determined using GraphPad Prism version 7.05 (GraphPad Software, San Diego, CA, USA). Results were the mean of 3 independent experiments. When it is relevant, statistical significance between results obtained with both parasite strains was determined by a Mann–Whitney test using GraphPad Prism version 7.05."}, "[2]": {"system": "ART-resistant parasites F32-ART at the quiescent stage", "assay": "Quiescent-stage Survival Assay (QSA), 48-h exposure", "assay_type": "cell-based, Plasmodium falciparum", "method": "The sensitivity of the ART-resistant parasites F32-ART at the quiescent stage towards the different molecules was determined using the QSA (Quiescent-stage Survival Assay), as previously described.\nEpidrugs were tested at their IC90 values. In the present study, quiescence was induced using 3 µM of ART or 700 nM of DHA [28]. Thus, D-sorbitol synchronized ring-stage parasites at 3% parasitemia and 2% hematocrit (5 mL of culture per well in 6-well plates) were first exposed to 6 h of ART or DHA to induce quiescence and then to 48 h of the combination “ART or DHA + compound to be tested”. The combinations “ART 6 h/ART 48 h” or “DHA 6 h/DHA 48 h” were used as controls. The compounds were evaluated, in parallel, on proliferating parasites, i.e., without any pre-treatment. After drug exposure, parasite cultures were washed with 40 mL of RPMI-1640 medium and cultured in drug-free conditions supplemented with 10% human serum in new wells. The parasitemia for each condition was then microscopically monitored every 2 days. Culture media were renewed twice a week and 25 µL of fresh red blood cells were added once a week. Obtained data were used to perform Kaplan–Meier survival analyses considering censored data. The outcome was defined as the day when parasite cultures reached the initial parasitemia (3%) and data were considered as censored if no parasite recrudescence was observed during the 30-day experiment timeframe. When relevant, statistical significance between results obtained for the conditions “ART/ART” and “ART/ART + compound to be tested” or “DHA/DHA” and “DHA/DHA + compound to be tested” was determined by a Log Rank (Mantel Cox) test using GraphPad Prism version 7.05. For the best compounds targeting histones, in order to compare western blots data, modified QSAs were carried out by comparing “DHA 6 h/DHA 24 h” versus “DHA 6 h/DHA + compound to be tested 24 h”."}, "[3]": {"system": "Plasmodium falciparum F32-TEM (artemisinin-sensitive twin line)", "assay": "Standard chemosensitivity assay (SYBR Green I), F32-TEM", "assay_type": "cell-based", "conditions": "Plasmodium falciparum; F32-TEM, 48 h incubation, SYBR Green I; mean ± SEM of 3 experiments (* mean of 2); read-out: Antiplasmodial Activity: IC50, F32-TEM", "method": "as §1, §2"}, "HFF": {"system": "HFF", "conditions": "read-out: Cytotoxicity: CC50 (HFF), data from literature ref 48; cited from earlier work"}, "H3K4me2": {"system": "H3K4me2", "assay": "Immunoblotting, histone mark abundance in F32-ART parasites", "assay_type": "cell-based, Plasmodium falciparum", "conditions": "270 nM", "method": "(§3) Abundance of methylated and acetylated histone was determined in parasite cultures in different conditions: “not-treated”, “DHA 24 h”, “DHA 6 h/DHA 24 h” and “DHA 6 h/DHA + compound to be tested 24 h”. At the end of the treatments, parasite cultures were washed in RPMI-1640 and then twice in PBS 1× before red blood cell lysis with 0.075% saponin (Sigma-Aldrich) in PBS. Parasite ghosts were washed 3 times in PBS before incubating the ghosts with E1A lysis buffer (50 mM Hepes pH 7.5; 250 mM NaCl; 5 mM EDTA; 0.1% Triton X-100, 1 mM DTT, 0.2 mM PMSF supplemented with complete Mini EDTA-free protease inhibitor cocktail (Roche®, Basel, Switzerland)) for 15 min. Ghosts were then sonicated for 3 × 15s ON/OFF cycles to shear parasite membranes. Debris were pelleted by centrifuging for 15 min at 13,800× g and 4 °C, and supernatants (containing parasitic proteins) were then collected. Protein concentrations were determined using BCA assay (Bio-Rad, Hercules, CA, USA) according to the manufacturer’s instructions. For each sample, 10 µg of proteins were mixed with 4× sample buffer (10 mL 50% Glycerol, 5 mL 0.5 M Tris HCl pH 6.8, 4 mL 20% SDS, 0.02% Bromophenol blue for a total solution volume of 20 mL) and 100 mM DTT and then separated on 15% SDS-PAGE gels in Laemmli running buffer. Gels were then wet-transferred O/N at 20 V onto PVDF membranes. Membranes were blocked in TBST for 1 h at room temperature. Bottom parts were then probed with histone antibodies while upper parts were probed with PFALDOLASE antibody (Abcam, ab38905, Cambridge, UK) at 1:20,000 dilution. The following primary antibodies were used: anti-H3K4me1 (Abcam, ab8895); anti-H3K4me2 (Abcam, ab35356); anti-H3K9me2 (Abcam, ab1220); anti-H3K9me3 (Millipore, 07-442, Burlington, MA, USA); anti-tetra-acetyl H4 (Millipore, 06-866); anti-H4K8Ac (Millipore, 07-328); anti-H4K20me3 (Abcam, ab9053); anti-H3K4me3 (Diagenode) and anti-H3K9Ac (Millipore, 07-352) at 1:10,000. The following secondary antibodies were used: anti-rabbit IgG-Peroxidase produced in goat (Sigma-Aldrich) or anti-mouse IgG-Peroxidase (Sigma-Aldrich); at 1:20,000 dilutions. Blots were developed using ECL Prime Western Blotting (GE Healthcare, Chicago, IL, USA) and read on a Chemidoc touch imaging software. Densitometry analysis was performed by using ImageLab software from Bio-Rad. To determine if variations in histone abundances were statistically significant, immunoblotting experiments were performed on 3 biological replicates and each run was performed twice."}, "H3K4me3": {"system": "H3K4me3", "assay": "Immunoblotting, histone mark abundance in F32-ART parasites", "assay_type": "cell-based, Plasmodium falciparum", "conditions": "270 nM", "method": "as §3"}, "H3K4me1": {"system": "H3K4me1", "assay": "Immunoblotting, histone mark abundance in F32-ART parasites", "assay_type": "cell-based, Plasmodium falciparum", "conditions": "270 nM", "method": "as §3"}, "H4K20me3": {"system": "H4K20me3", "assay": "Immunoblotting, histone mark abundance in F32-ART parasites", "assay_type": "cell-based, Plasmodium falciparum", "conditions": "270 nM", "method": "as §3"}, "[4]": {"system": "ART-resistant parasites F32-ART at the quiescent stage", "assay": "Modified QSA, 24-h exposure", "assay_type": "cell-based, Plasmodium falciparum", "conditions": "DHA 700 nM, compound at its IC90, 24-h exposure", "method": "Epidrugs were tested at their IC90 values. In the present study, quiescence was induced using 3 µM of ART or 700 nM of DHA [28]. Thus, D-sorbitol synchronized ring-stage parasites at 3% parasitemia and 2% hematocrit (5 mL of culture per well in 6-well plates) were first exposed to 6 h of ART or DHA to induce quiescence and then to 48 h of the combination “ART or DHA + compound to be tested”. The combinations “ART 6 h/ART 48 h” or “DHA 6 h/DHA 48 h” were used as controls. The compounds were evaluated, in parallel, on proliferating parasites, i.e., without any pre-treatment. […] The parasitemia for each condition was then microscopically monitored every 2 days. […] When relevant, statistical significance between results obtained for the conditions “ART/ART” and “ART/ART + compound to be tested” or “DHA/DHA” and “DHA/DHA + compound to be tested” was determined by a Log Rank (Mantel Cox) test using GraphPad Prism version 7.05. […]\nTo collect enough material for immunoblotting, we performed the analysis after a 24-h exposure of DHA-treated parasites to the epidrug and in parallel evaluated the activity of the three epidrugs in a modified QSA, in which quiescent parasites were exposed to the drug to be tested for 24 instead of 48 h, as in our previous experiments (Figure 2)."}, "[5]": {"conditions": "24 h, F32-ART ring stage proliferating, 3 replicates (Fig 3C)"}, "[6]": {"conditions": "DHA 6 h/DHA + TM2-115 24 h, F32-ART DHA-treated parasites, 3 replicates (Fig 3G)"}}, "note": "Where “and” joins values, the source holds several entries; their conditions need not be identical. Equal values may be shown once. Read-outs that look alike come from different tables or passages of the source.", "data": [{"smiles": "O=C(CCCCCCC(=O)Nc1ccccc1)NO", "note": "[SAHA]", "values": [{"measurement": "CC50", "setting": "NFF; read-out: Cytotoxicity: CC50 (NFF), data from literature ref 43", "result": 5500, "unit": "nM"}]}, {"smiles": "COc1cc2c(NC3CCN(C)CC3)nc(N3CCCN(C)CC3)nc2cc1OCc1ccccc1", "note": "[TM2-115]", "values": [{"measurement": "IC90", "setting": "[1]; Plasmodium falciparum, F32, concentration used in QSA and immunoblotting", "result": 270, "unit": "nM"}, {"measurement": "IC50", "setting": "[1]; Plasmodium falciparum", "result": "128 ± 30", "unit": "nM"}, {"measurement": "Selectivity Index CC50/IC50", "setting": "[1]", "result": 45}, {"measurement": "Delay in parasite recrudescence time (difference between median recrudescence times), ART/ART + compound vs ART/ART", "setting": "[2]; quiescence induced with ART 3 µM 6 h, then 48 h ART + compound at its IC90", "result": 9.5, "unit": "days"}, {"measurement": "Delay in recrudescence time, DHA/DHA + compound vs DHA/DHA", "setting": "[2]; quiescence induced with DHA 700 nM 6 h, then 48 h DHA + compound at its IC90", "result": "≥ 6", "unit": "days"}, {"measurement": "IC50", "setting": "[3]", "result": "104 ± 32", "unit": "nM"}, {"measurement": "CC50", "setting": "HFF", "result": 5.7, "unit": "µM"}, {"measurement": "Fold change of H3K4me2 abundance, TM2-115 vs DMSO", "setting": "H3K4me2; [5]", "result": "1.31 and 1.11 and 0.85"}, {"measurement": "Fold change of H3K4me2 abundance, TM2-115, quiescent stage", "setting": "H3K4me2; [6]", "result": "did not induce a quantifiable change and 1.00 and 0.95 and 0.47"}, {"measurement": "Fold change of H3K4me3 abundance, TM2-115 vs DMSO", "setting": "H3K4me3; [5]", "result": "1.39 and 1.69 and 1.12"}, {"measurement": "Fold change of H3K4me3 abundance, TM2-115, quiescent stage", "setting": "H3K4me3; [6]", "result": "did not induce a quantifiable change and 0.81 and 0.67 and 1.16"}, {"measurement": "Fold change of H3K4me1 abundance, TM2-115 vs DMSO", "setting": "H3K4me1; [5]", "result": "1.37 and 0.47 and 2.10"}, {"measurement": "Fold change of H3K4me1 abundance, TM2-115, quiescent stage", "setting": "H3K4me1; [6]", "result": "did not induce a quantifiable change and 0.51 and 1.07 and 0.76"}, {"measurement": "Fold change of H4K20me3 abundance, TM2-115 vs DMSO", "setting": "H4K20me3; [5]", "result": "inhibited H4K20 methylation and 0.82 and 0.71 and 0.76"}, {"measurement": "Fold change of H4K20me3 abundance, TM2-115, quiescent stage", "setting": "H4K20me3; [6]", "result": "did not induce a quantifiable change and 1.10 and 1.20 and 0.97"}, {"measurement": "Recrudescence in modified QSA, DHA 6 h/DHA + compound 24 h vs DHA 6 h/DHA 24 h", "setting": "[4]", "result": "clearly impaired quiescent parasite survival"}]}, {"smiles": "CC(/C=C/C(=O)NO)=C\\[C@@H](C)C(=O)c1ccc(N(C)C)cc1", "note": "[Trichostatin A]", "values": [{"measurement": "IC50", "setting": "[1]; Plasmodium falciparum", "result": "29 ± 12", "unit": "nM"}, {"measurement": "Selectivity Index CC50/IC50", "setting": "[1]", "result": 7}, {"measurement": "CC50", "setting": "NFF; read-out: Cytotoxicity: CC50 (NFF), data from literature ref 40", "result": 200, "unit": "nM"}, {"measurement": "IC50", "setting": "[3]", "result": "30 ± 3", "unit": "nM"}]}]}
